Assay results: the METLIN SMRT retention time set (Domingo-Almenara et al. 2019)

Experiment: gradient 5% acetonitrile 3 min, to 50% in 2 min, to 85% in 15 min, held 3 min, 100 µL/min
Conditions: column: Zorbax Extend-C18 2.1 x 50 mm; eluents: water / acetonitrile, 0.1% formic acid
How it was run: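 Mixtures of ~100 pure standards were chromatographed on a Zorbax Extend-C18 column (2.1 × 50 mm, 1.8 μm) at 100 μL/min using water and acetonitrile, each with 0.1% formic acid. Detection used a quadrupole time-of-flight mass spectrometer in positive and negative ionization mode, and data collection spanned 3 months. Retention time was obtained from adduct peaks picked computationally and each checked manually.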

Row | SMILES | RP-LC retention time [s]
1 | O=C(Nc1ccccc1)Nc1ccccn1 | 736
2 | Cc1cccn2c(Nc3ccc4c(c3)OCCO4)c(-c3ccc(N4CCOCC4)cc3)nc12 | 683
3 | Cc1ccc(CNC(=O)CCNc2c(-c3ccccc3C)nc3cnccn23)o1 | 631
4 | Cc1ccc(Nc2c(-c3ccc(C)cc3)nc3cnccn23)cc1 | 969
5 | COc1ccc(-c2noc(C3(NC(=O)c4ccccc4OC)CCCCC3)n2)cc1 | 1210
6 | Cc1cc(NS(=O)(=O)c2ccc(Nc3nc(-c4ccc(Cl)c(Cl)c4)cs3)cc2)no1 | 1130
7 | Cc1nc2cccnc2n1CC1CCCN(S(=O)(=O)c2ccc(C(C)C)cc2)C1 (stereo not drawn) | 817
8 | Cn1cccc1C(=O)N1CCC2(CC1)NC(=O)N(Cc1cccc(Cl)c1)C2=O | 821
9 | COCc1nc2ccccc2n1CC(=O)Nc1ccccc1 | 780
10 | c1ccc(Nc2nc(-c3ccc4c(c3)OCO4)cs2)nc1 | 849
11 | CN(C)C(=O)c1[nH]c2ccccc2c1N1CCCC1=O | 604
12 | Cc1cccc(NS(=O)(=O)c2cc(-c3[nH]ncc3C(=O)N(C)C)oc2C)c1 | 678
13 | COc1ccc(NS(=O)(=O)c2cc(-c3nc(C(C)(C)C)cs3)cs2)cc1F | 1180
14 | c1ccc(CCc2nc3nccc(-c4ccc5c(c4)OCCCO5)n3n2)cc1 | 984
15 | COc1ccc(-c2nc3cnccn3c2Nc2cc(C)cc(C)c2)cc1 | 952
16 | COc1ccccc1OCC(=O)N(Cc1ccc(N(C)C)cc1)C1CCS(=O)(=O)C1 (stereo not drawn) | 611
17 | CCCN1C(=O)C(NC(=O)c2ccccc2OC)(C(F)(F)F)C(C(=O)OC)=C1C (stereo not drawn) | 935
18 | O=C(c1ccc2ncccc2c1)N1C[C@@H](CO)[C@H](c2ccccn2)C1 | 543
19 | Cc1[nH]c(=O)[nH]c(=O)c1S(=O)(=O)NC1CC2CCC1C2 (stereo not drawn) | 658
20 | c1ccc(Cn2cnnc2C2CCCN(Cc3cccs3)C2)cc1 (stereo not drawn) | 592
21 | CN1C(=O)CCc2cc(NS(=O)(=O)c3ccc(Br)cc3)ccc21 | 810

Row | SMILES | RP-LC retention time [s]
22 | O=C(c1ccccc1)N1C[C@@H]2C[C@H]1C[C@@H]2NS(=O)(=O)c1cccnc1 | 630
23 | CCN(CC)S(=O)(=O)c1ccc(C)c(-c2nnc(-c3ccccc3Cl)o2)c1 | 1140
24 | Cc1cc(C)cc(NC(=O)C2CCCN(c3nc4ccsc4c(=O)n3-c3cccc(C)c3)C2)c1 (stereo not drawn) | 1100
25 | Cc1ccccc1-c1noc(C2CCCN2C(=O)Nc2ccc(F)cc2F)n1 (stereo not drawn) | 993
26 | CCOc1ccccc1C(=O)N1CCC2(CC1)N=C(c1cccc(Br)c1)NO2 | 951
27 | CCC1CN2C=Nc3oc(C)c(C(=O)Nc4ccc5c(c4)OCO5)c3C2=N1 (stereo not drawn) | 632
28 | CCN(CC)C(=O)c1ccc2c(c1)N(CC(=O)N1CCC(C)CC1)C(=O)C1CCCCN21 (stereo not drawn) | 838
29 | COc1cc(NC(=O)C2CCCN(c3nc4ccccc4nc3OC)C2)c(OC)cc1Cl (stereo not drawn) | 1290
30 | CCN(CC)CCn1c(NCc2ccccc2OC)nc2ccccc21 | 1130
31 | Fc1ccc(F)c(-c2nc(-c3ccc(-n4cccn4)nc3)no2)c1 | 1170
32 | COC(=O)c1scc(C)c1NC(=O)C(C)NC(C)C (stereo not drawn) | 618
33 | O=C(N[C@@H]1CN(c2ccncn2)C[C@H]1CO)c1nccc2ccccc12 | 581
34 | COc1ccc(-c2nc3n(c2C(=O)Nc2nc(-c4ccc(C)cc4)cs2)CCS3(=O)=O)cc1 | 1060
35 | O=C(Cc1c(Sc2cccc(F)c2)[nH]c2ccccc12)N1CCN(c2ccccn2)CC1 | 699
36 | CCOC(=O)NCc1nc2ccccc2n1Cc1c(F)cccc1Cl | 613
37 | O=C(CCCn1c(=O)c2cccn2c2ccc(F)cc21)N1CCN(C(=O)c2ccco2)CC1 | 745
38 | CCOC(=O)c1ccc(NC(=O)c2ccc(S(=O)(=O)N(C)C)cc2)cc1 | 833
39 | CN(C(=O)C1=Cc2ccccc2OC=C1)c1ccccc1 | 1020
40 | COc1ccc2nc(C(=O)NC(C)c3ccc(F)cc3)cn2n1 (stereo not drawn) | 821
41 | COc1cccc(CNC(=O)Nc2c(-c3ccc(F)cc3)nc3ccccn23)c1 | 652
42 | COc1ccc(CNC(=O)CN2CCc3[nH]c4c(C)c(Cl)ccc4c(=O)c3C2)cc1 | 638

Row | SMILES | RP-LC retention time [s]
43 | CCOc1ccc(NS(=O)(=O)c2cc(-c3c(CC)noc3NC(C)=O)ccc2OC)cc1 | 791
44 | CN1C(=O)CS(=O)(=O)C12CCN(C(=O)c1ccc3c(c1)OCO3)CC2 | 628
45 | COc1ccc(S(=O)(=O)N2CCC(c3ccncc3)CC2)cc1Cl | 667
46 | CN(CCc1noc(COc2ccccc2F)n1)C(=O)c1cccs1 | 835
47 | Cc1cc(Cl)ccc1NC(=O)N1C[C@H](c2nc(-c3cccnc3)no2)[C@@H](C)C1 | 827
48 | COc1ccc(C(=O)CSc2nc(CC(=O)NCc3cccnc3)cs2)cc1 | 589
49 | O=C(NCc1ccccc1Cl)c1cn2c(n1)COCC2 | 665
50 | COc1ccccc1CNC(=O)C1c2ccccc2C(=O)N2CCc3cc(OC)c(OC)cc3C12 (stereo not drawn) | 735
51 | O=C(CN1CCOCC1)Nc1ccc(Br)cc1 | 556
52 | O=C(Nc1cccc(OCc2nnc(-c3ccccc3)o2)c1)c1ccnc(Cl)c1 | 926
53 | Cc1ccc(-c2noc(Cn3c(=O)n(-c4ccc(F)cc4)c(=O)c4sccc43)n2)cc1C | 1080
54 | C[C@@H](NC(=O)c1ccc(F)c(F)c1)C(=O)NCc1cscn1 | 648
55 | Cc1nc(-c2noc(-c3ccccc3)n2)cn1CC(=O)N1CCc2ccccc21 | 860
56 | O=C(NCc1ccco1)N1CCCn2nc(-c3cccs3)cc2C1 | 752
57 | Cc1cc(C)n(-c2ccc(C(=O)NCCCN3CCCC3=O)nn2)n1 | 637
58 | Cc1ccc(Nc2c(-c3ccc(C)cc3)nc3ncccn23)cc1 | 802
59 | COc1cc(-c2nc3ncccn3c2Nc2cccc(Cl)c2C)ccc1O | 715
60 | C=CCn1c(=O)c2c(nc3n2CC(C)CN3c2cc(C)cc(C)c2)n(C)c1=O (stereo not drawn) | 1040
61 | CCCOc1ccc(CN2C[C@@H](CO)[C@H](c3ccccn3)C2)cc1 | 578
62 | CN1C[C@H](C(=O)N[C@]2(C)O[C@@]3(O)[C@@H]4CCCN4C(=O)[C@H](Cc4ccccc4)N3C2=O)CC2c3cccc4[nH]cc(c34)C[C@H]21 (stereo partly drawn) | 683

Other lines, results leading:

Row | RP-LC retention time [s] | SMILES
63 | 931 | Cc1noc2ncnc(N3CCCC(C(=O)N4CCN(c5ccc(Cl)cc5)CC4)C3)c12 (stereo not drawn)
64 | 639 | O=C(CN1C(=O)C2CCCCN2c2ccc(C(=O)N3CCCC3)cc21)NCCCN1CCCCCC1 (stereo not drawn)
65 | 730 | O=C(CCn1cnc2cc(-c3noc(-c4ccccc4F)n3)ccc21)N1CCCC1
66 | 716 | Cc1ccc(CC(=O)Nc2c(C(=O)N3CCN(c4ccccn4)CC3)oc3ccccc23)cc1
67 | 995 | Cc1nc(-c2cn(C)c3ncccc23)sc1C(=O)NC1CCCCCC1
68 | 742 | COc1ccccc1NC(=O)CC(=O)Nc1ccc2nc3n(c(=O)c2c1)CCCCC3
69 | 651 | CCOC(=O)C1CCN(C(=O)C2CCN(c3cncnc3N3CCCCC3)CC2)CC1
70 | 575 | CCn1c(N2CCCC(C(=O)NCc3cccnc3)C2)cc(=O)n(C)c1=O (stereo not drawn)
71 | 564 | O=C(NCc1cccs1)C1CCN(c2cc(-n3ccnc3)ncn2)CC1
72 | 795 | O=C(N1CCC(Cc2ccc(COCc3ccncc3)cc2)CC1)C1(c2ccccc2)CC1
73 | 696 | CCNC(=O)C1CCN(S(C)(=O)=O)c2cc(C)ccc2O1 (stereo not drawn)
74 | 802 | O=C(NCc1ccc(F)cc1Cl)C1CCCN(c2ncnc3c2oc2ccccc23)C1 (stereo not drawn)
75 | 619 | CN(C)C(=O)c1ccc2c(c1)N(CC(=O)NCc1cccc(Cl)c1)C(=O)C1CCCCN21 (stereo not drawn)
76 | 712 | Cc1ccc(F)cc1NC(=O)Cn1cnc2nc(N3CCCC(C(=O)NC(C)C)C3)sc2c1=O (stereo not drawn)
77 | 1220 | Cc1ccc(-c2noc(C3CCCN3S(=O)(=O)c3ccc(Br)s3)n2)cc1 (stereo not drawn)
78 | 716 | CC(C)n1c(=O)sc2cc(S(=O)(=O)N3CCC(C(=O)N(C)C4CCCCC4)CC3)ccc21
79 | 912 | COc1cccc(-c2ccc3nc(N4CCC(C(=O)N5CCCC5)CC4)sc3n2)c1
80 | 607 | CCc1cc(N2CCN(C(=O)c3ccc4c(c3)OCO4)CC2)nc2nnc(C)n12
81 | 630 | Cn1c(N2CCCC(C(=O)NCCCN3CCC(Cc4ccccc4)CC3)C2)cc(=O)n(C)c1=O (stereo not drawn)
82 | 665 | O=C(CCn1nnc2cc(S(=O)(=O)N3CCCCC3)ccc21)N1CCN(c2ccccn2)CC1
83 | 631 | O=C(C1CC1)N1CCC(F)(C(=O)NCC2CC2)CC1
84 | 750 | COc1ccc(S(=O)(=O)NC2CCN(C(=O)C3CCC3)CC2)cc1
85 | 679 | O=C(Cc1nnc(-c2ccc3ncccc3c2)o1)NC1CCCCC1
86 | 768 | O=C(NC1CC1)C1CCN(c2nc3ccsc3c(=O)n2Cc2ccc(F)cc2)CC1
87 | 818 | CC(C)NC(=O)c1ccc(OCC2CCCN2C(=O)c2cccs2)cc1 (stereo not drawn)
88 | 760 | O=C1CC(C(=O)N2CCCCCC2)CN1CCc1ccccc1 (stereo not drawn)
